Values of other authors, collected in US20240216299A1, “TRANSMUCOSAL THERAPEUTIC SYSTEM CONTAINING AGOMELATINE” (LTS LOHMANN Therapie-Systeme AG, priority 2019, published 2024).

[1] = patients with moderate hepatic impairment compared to healthy subjects

- oral absorption (oral): > 80%
- overall bioavailability (oral): less than 5%
- increase in AUC [1]: up to 140 fold
- increase in Cmax [1]: up to 140 fold
Compound: COc1ccc2cccc(CCNC(C)=O)c2c1 [agomelatine, N-(2-(7-Methoxy-1-naphthyl)ethyl)acetamide]
